Key:
[1] = system: monoclonal antibody B2B4, raised in mice against bovine serum albumin-derivatized calcitroic acid; settings: for concentration displacing half of the reversibly bound 3H-1,25-(OH)2 D3: monoclonal antibody b2b4, 18 h
Experimental: (§1) Monoclonal antibodies binding calcitroic acid were detected in culture supernatants by a radioimmunoassay in which supernatants were exposed to microtiter plates coated with a calcitroic acid-egg albumin conjugate.
Radioligand was added after 1 hr pre-incubation in displacement assays; otherwise it was added immediately. […] Alternatively, 20 λ of a partially purified preparation of carrier mouse IgG was added to the assay mixture. Then 40 λ of purified preparation of rabbit antimouse IgG was added and the mixture incubated for 4 hours at 4° C. […] After centrifugation at 1000×g for 20 minutes, the supernatants were aspirated, the pellets suspended in Budget Solve (Research Products International, Mount Prospect, Ill.) and their radioactivity determined in a Beckman 7000 Scintillation Counter (Beckman Instruments Company, Palo Alto, Calif.).
For sucrose density gradient analysis, 350 λ of assay mixture or supernatant after immunoprecipitation was layered on a linear 5-20% sucrose gradient and centrifuged at 100,000×g for 17 hours. Molecular markers, human gamma globulin (16 mg/ml assay buffer) (Calbiochem-Behring, La Jolla, Calif.) and BSA (12 mg/ml assay buffer) were centrifuged identically. Fractions were collected through a bottom puncture apparatus and their radioactivity assayed.

[2] = system: monoclonal antibody B3A1, raised in mice against bovine serum albumin-derivatized calcitroic acid
Experimental: Bound tracer is separated from free by second antibody precipitation.
as §1
Radioligand was added after 1 hr pre-incubation in displacement assays; otherwise it was added immediately. After incubation for 18 hours, 10λ of rabbit anti-mouse Fab' (unrestricted gift of Dr. Judith Kapp-Pierce, Department of Pathology, Jewish Hospital of St. Louis and Washington University School of Medicine) was added with carrier mouse IgG and tubes were incubated for another 45 minutes at 4°. Alternatively, 20 λ of a partially purified preparation of carrier mouse IgG was added to the assay mixture. Then 40 λ of purified preparation of rabbit antimouse IgG was added and the mixture incubated for 4 hours at 4° C. […] After centrifugation at 1000×g for 20 minutes, the supernatants were aspirated, the pellets suspended in Budget Solve (Research Products International, Mount Prospect, Ill.) and their radioactivity determined in a Beckman 7000 Scintillation Counter (Beckman Instruments Company, Palo Alto, Calif.).

Row | Compound | displacement of radioligand from B2B4 (sucrose gradient) ([1]; 1 ng/ml of 1,25-(OH)2 D3 added prior to centrifugation, data not shown) | KD of calcitriol less than the KD of this analog by [2] | recognition by the antibody ([2]; at concentrations as great as 100 ng/ml) | concentration displacing half of the reversibly bound 3H-1,25-(OH)2 D3 [1]
1 | C=C1/C(=C\C=C2/CCC[C@]3(C)[C@@H]([C@H](C)CCCC(C)(C)O)CC[C@@H]23)C[C@@H](O)C[C@@H]1O [1,25-(OH)2 D3, 1,25-dihydroxycholecalciferol] | almost completely displaced |  |  | 
2 | C=C1CC[C@H](O)C/C1=C/C=C1\CCC[C@]2(C)[C@@H]([C@H](C)CCC(O)C(C)(C)O)CC[C@@H]12 (stereo partly drawn) [24,25-(OH)2 D3, 24,25-dihydroxycholecalciferol] |  | about 41/2 | does not recognize | 0.048 ng/mL
3 | C=C1CC[C@H](O)C/C1=C/C=C1\CCC[C@]2(C)[C@@H]([C@H](C)CCCC(C)(C)O)CC[C@@H]12 [25-OHD3, 25-hydroxycholecalciferol] |  | more than 6 orders of magnitude |  | 0.068 ng/mL

Reference: patent US4585741A, “Method of assay for vitamin D metabolites” (priority 1983, dated 1986)
